Several values for one entry are separate records, joined by “and”; a condition that tells them apart may be missing. Equal entries are not always repeated. Toxic doses and inconclusive results are not listed. Rule for the calls: active = survival T/C of 150% or more; inactive = T/C below 125% in these data.
Test system: P388 leukemia ip, CD2F1 mice, survival T/C
Experiment: NCI In Vivo Anticancer Drug Screen. Data for tumor model P388 Leukemia (intraperitoneal) in CD2F1 (CDF1) mice
Conditions: endpoint: median survival time, higher = longer survival
In short: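 Mice carrying the transplanted tumor received test compound or vehicle. Survival was recorded in each group, and the value is the treated-group measurement divided by that of the vehicle-treated control group.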

[1] = dose: 12.5 mg/kg/injection, schedule: Q01DX005 (ip), vehicle: saline with Tween-80
[2] = dose: 25.0 mg/kg/injection, schedule: Q01DX005 (ip), vehicle: saline with Tween-80
[3] = dose: 50.0 mg/kg/injection, schedule: Q01DX005 (ip), vehicle: saline with Tween-80
[4] = dose: 100.0 mg/kg/injection, schedule: Q01DX005 (ip), vehicle: saline with Tween-80
[5] = dose: 200.0 mg/kg/injection, schedule: Q01DX005 (ip), vehicle: saline with Tween-80

Measured: T/C

CC(C)(C)C(=O)CC(=O)C(F)(F)C(F)(F)C(F)(F)F.CC(C)(C)C(=O)CC(=O)C(F)(F)C(F)(F)C(F)(F)F.CC(C)(C)C(=O)CC(=O)C(F)(F)C(F)(F)C(F)(F)F.[Er]
inactive: dose: 100.0 mg/kg/injection, schedule: Q01DX009 (ip), vehicle: Klucel (hydroxypropylcellulose) (HPC) 97 % of control | dose: 200.0 mg/kg/injection, schedule: Q01DX009 (ip), vehicle: Klucel (hydroxypropylcellulose) (HPC) 95 % of control | dose: 400.0 mg/kg/injection, schedule: Q01DX009 (ip), vehicle: Klucel (hydroxypropylcellulose) (HPC) 112 % of control

Cc1cc(=O)c(C#N)c(C)o1
inactive: dose: 60.0 mg/kg/injection, schedule: Q01DX005 (ip), vehicle: saline with Tween-80 98 % of control | dose: 120.0 mg/kg/injection, schedule: Q01DX005 (ip), vehicle: saline with Tween-80 97 % of control | dose: 240.0 mg/kg/injection, schedule: Q01DX005 (ip), vehicle: saline with Tween-80 90 % of control

CC(=O)C1=CC[C@H]2[C@@H]3C=CC4=CC(=O)CC[C@]4(C)[C@H]3C[C@@H](O)[C@]12C
inactive: dose: 12.5 mg/kg/injection, schedule: Q01DX005 (ip), vehicle: Klucel (hydroxypropylcellulose) (HPC) 99 % of control | dose: 25.0 mg/kg/injection, schedule: Q01DX005 (ip), vehicle: Klucel (hydroxypropylcellulose) (HPC) 96 % of control | dose: 50.0 mg/kg/injection, schedule: Q01DX005 (ip), vehicle: Klucel (hydroxypropylcellulose) (HPC) 107 % of control | dose: 100.0 mg/kg/injection, schedule: Q01DX005 (ip), vehicle: Klucel (hydroxypropylcellulose) (HPC) 99 % of control | dose: 200.0 mg/kg/injection, schedule: Q01DX005 (ip), vehicle: Klucel (hydroxypropylcellulose) (HPC) 106 % of control

OCCN(CCO)c1ccc2ccc(N(CCO)CCO)nc2n1
inactive: dose: 50.0 mg/kg/injection, schedule: Q04DX003 (ip), vehicle: Klucel (hydroxypropylcellulose) (HPC) 103 % of control | dose: 100.0 mg/kg/injection, schedule: Q04DX003 (ip), vehicle: Klucel (hydroxypropylcellulose) (HPC) 103 % of control | dose: 200.0 mg/kg/injection, schedule: Q04DX003 (ip), vehicle: Klucel (hydroxypropylcellulose) (HPC) 100 % of control

Cn1c(COc2ccc(/C=N\N/C(N)=N/N=C/c3ccc(OCc4c[n+]5ccccc5n4C)cc3)cc2)c[n+]2ccccc12
inactive: [1] 110 % of control | [2] 112 % of control

CC(C)=C1[C@@H]2C=C[C@@H]1[C@H]1C(=O)[C@@H]3O[C@]3(CO)C(=O)[C@H]12
inactive: [3] 106 % of control | [4] 101 % of control | [5] 108 % of control

C[CH2][Sn]1([CH2]C)[O]C2C(OC)OC3COC(c4ccccc4)OC3C2[O]1 (centres undefined)
inactive: dose: 1.56 mg/kg/injection, schedule: Q04DX003 (ip), vehicle: saline 101 % of control and 107 % of control | dose: 3.12 mg/kg/injection, schedule: Q04DX003 (ip), vehicle: saline 104 % of control and 116 % of control | dose: 6.25 mg/kg/injection, schedule: Q04DX003 (ip), vehicle: saline 101 % of control and 116 % of control and 117 % of control | dose: 12.5 mg/kg/injection, schedule: Q04DX003 (ip), vehicle: saline 104 % of control and 116 % of control

CCCCN(CCCC)C(C)C(=O)c1ccc2cc(Br)c3ccccc3c2c1 (centres undefined)
inactive: [1] 110 % of control | [2] 101 % of control | [3] 99 % of control and 100 % of control | [4] 107 % of control | [5] 119 % of control

CCOC(=O)N1C=CC2(C=C1)CCCC2
inactive: dose: 50.0 mg/kg/injection, schedule: Q01DX001 (ip), vehicle: Klucel (hydroxypropylcellulose) (HPC) 108 % of control | dose: 100.0 mg/kg/injection, schedule: Q01DX001 (ip), vehicle: Klucel (hydroxypropylcellulose) (HPC) 102 % of control | dose: 200.0 mg/kg/injection, schedule: Q01DX001 (ip), vehicle: Klucel (hydroxypropylcellulose) (HPC) 102 % of control

O=CNc1ncc([N+](=O)[O-])s1
inactive: dose: 12.5 mg/kg/injection, schedule: Q01DX009 (ip), vehicle: saline with Tween-80 95 % of control | dose: 25.0 mg/kg/injection, schedule: Q01DX009 (ip), vehicle: saline with Tween-80 90 % of control | dose: 50.0 mg/kg/injection, schedule: Q01DX009 (ip), vehicle: saline with Tween-80 100 % of control and 102 % of control
